In patent US20130045239A1, “Method for Modulating the Pharmacodynamic Effect of Orally Administered Guanylate Cyclase Receptor Agonists” (Ironwood Pharmaceuticals, Inc., priority 2009, published 2013):
Marks after values point to notes of the source that are not given here. Positions of bridges follow the written chain, without caps; N, C: chain ends. Residues, ends and D or L forms follow the SMILES beside them.

How the values were obtained:
Type in all cases: in vivo, human
[1] = Linaclotide food effect study: plasma levels of linaclotide and its metabolite; conditions: for Cmax / Tmax: human, plasma, po, 3000 ug, single oral dose 3000 ug, fasted
Procedure: (§1) During the Pretreatment Phase of each Crossover Period, subjects were not to receive study drug. On Day 8 of Crossover Period 1 and Day 43 of Crossover Period 2, subjects started the Treatment Phase and were to receive 300 ug linaclotide once daily for a total of 7 days. On Day 14 and 15 of Crossover Period 1, blood was to be drawn to assay for linaclotide and its active metabolite. After the study procedures were completed on Day 15, subjects were discharged home with instructions to follow the same outpatient diet that they followed during the Screening Stage and to return to the Phase 1 unit on Day 35 for Crossover Period 2. On Day 50 of Crossover Period 2, subjects were to receive a single oral dose of 3000 ug linaclotide and were discharged from the Phase 1 unit on Day 51. After subjects received the 3000 ug dose, blood was to be drawn on Day 50 and 51 to assay for linaclotide and linaclotide metabolites.
Blood samples were to be collected at 0 hour (prior to dosing) and 0.5, 1, 2, 3, 4, 6 and 24 hours post dose on Day 14 of Crossover Period 1 and on Day 50 of Crossover Period 2, for determination of the following PK parameters for linaclotide and a metabolite of linaclotide (CCEYCCNPACTGC (SEQ ID NO: 10)) (if systemic levels of linaclotide and or the metabolite are detected): maximum observed plasma concentration (Cmax), time to maximum concentration (Tmax), area under the plasma concentration time curve (AUC0-t), area under the plasma concentration time curve extrapolated to infinity (AUC0-∞), clearance relative to bioavailability (CL/F), apparent volume of distribution (Vd/F), apparent terminal half life (t1/2).

[2] = Linaclotide food effect study: 24-hour stool recovery; conditions: following 7 days of dosing at 300 ug per day, both fed and fasted conditions; predominately as a major linaclotide metabolite
Procedure: As for the 24-hour stool results, approximately 3 percent of a single dose of linaclotide was recovered on average following 7 days of dosing at 300 ug per day under both fed and fasted conditions. The recovery was predominately in the form of a major linaclotide metabolite.

healthy volunteers = experiment: Linaclotide food effect study: pharmacodynamic effect on bowel habits under fed vs fasted conditions
Procedure: The randomized, open-label, two-period, two-sequence, crossover trial of oral linaclotide in healthy volunteers tested under fasted or fed conditions summarized herein was undertaken to determine if linaclotide is susceptible to a food effect. The study consisted of 4 stages: an 8-day to 15-day Screening Stage, two 15- to 16-day Crossover Periods (1 and 2), and a 21-day Washout Stage which was to occur between Crossover Periods 1 and 2. The doses tested in this study were 300 ug and a 1-day dose of 3000 ug at the end of Crossover Periods 1 and 2.
The study consisted of 4 stages: an 8-day to 15-day Screening Stage which was to take place at home and determine eligibility, two 15- to 16-day stages (Crossover Periods 1 and 2) which were to take place in a Phase 1 unit, and a 21-day Washout Stage which was to take place at home and occur between Crossover Periods 1 and 2. The individual study Stages are detailed below.
Eligible subjects were entered into the Phase 1 unit and were randomized to 1 of 2 Treatment Sequences. Sequence 1 (Fed-Fasted): During Crossover Period 1, linaclotide was to be administered immediately after a high-fat breakfast (the fed condition); during Crossover Period 2, linaclotide was to be administered after a 10-hour fast (the fasted condition). Sequence 2 (Fasted-Fed): During Crossover Period 1, linaclotide was to be administered under the fasted condition; during Crossover Period 2, linaclotide was to be administered under the fed condition.
Crossover Period 1 lasted for 15 days and Crossover Period 2 started on Day 35, immediately after the 21-day Washout Stage, and lasted for 16 days. Subjects were to record their bowel habits in their BHD and ingest their meals at the time determined by their randomization sequence. At a specified time on each day, the information in the BHD was to be reviewed by the site staff to insure appropriate completion.
as §1
Linaclotide was to be administered at the same time each morning with 240 cc (8 oz) of water; food was to be withheld for approximately 4 hr after dosing, and additional water was to be withheld from 1 hour before linaclotide administration until 1 hour after dosing. Under the fed condition, subjects were required to start and complete a high-fat breakfast during the 30 minutes before linaclotide administration. Under the fasted condition, linaclotide was to be administered following an overnight fast.
All meals and meal times were standardized during Crossover Periods 1 and 2 with the total daily calorie, fat, and fiber intake the same for each diet condition (fed and fasted). The daily quantity of these nutrients was based on the “United States Department of Agriculture (USDA) Dietary Recommendations for Americans.” Each subject received approximately 2000 total calories per day.
Linaclotide, 300 ug, oral gelatin capsule. Linaclotide, 3000 ug (5 oral gelatin capsules of 600 ug linaclotide each), single dose.
The primary endpoint was the change from Pretreatment Phase to Treatment Phase for each Crossover Period in stool consistency on the BSFS scale. […]

[3] = 300 ug once daily, Fasted, last 4 days of treatment
[4] = 300 ug once daily, Fasted, over 7 days of treatment
[5] = 300 ug once daily, Fed, last 4 days of treatment
[6] = 300 ug once daily, Fed, over 7 days of treatment
[7] = 300 ug once daily, last 4 days of treatment
[8] = 300 ug once daily, over 7 days of treatment

In the case of “CCEYCCNPACTGC (Synthetically generated peptide) [linaclotide metabolite, a metabolite of linaclotide]”, the “Plasma level of linaclotide metabolite” value ([1]; 300 ug linaclotide oral for 7 days of treatment, all subjects, no quantifiable levels, limit of detection=2.0 ng/ml) is reported as under 2.0 ng/mL and the Metabolite in plasma ([1]; after linaclotide dosing (300 ug and 3000 ug), any subject) is reported as “No metabolite (SEQ ID NO: 10) was detected”.
In the case of `C[C@@H]1NC(=O)[C@@H]2CCCN2C(=O)[C@H](CC(N)=O)NC(=O)[C@@H]2CSSC[C@H](N)C(=O)N[C@H]3CSSC[C@H](NC1=O)C(=O)N[C@@H]([C@@H](C)O)C(=O)NCC(=O)N[C@H](C(=O)N[C@@H](Cc1ccc(O)cc1)C(=O)O)CSSC[C@H](NC(=O)[C@H](Cc1ccc(O)cc1)NC(=O)[C@H](CCC(=O)O)NC3=O)C(=O)N2` [Linaclotide, Cys Cys Glu Tyr Cys Cys Asn Pro Ala Cys Thr Gly Cys Tyr] (H-CCEYCCNPACTGCY-OH; disulfide 1-6, 2-10, 5-13), the “Recovery of a single dose in 24-hour stool, on average” value [2] is reported as “approximately 3%”, the “CSBM, Change from Pretreatment Mean (SEM)” value (“CSBM, Change … (SEM)” below) (healthy volunteers; [3]) is reported as 0.39 (0.293) and the “SBM, Change from Pretreatment Mean (SEM)” value (healthy volunteers; [3]) is reported as 0.72 (0.419). For the same compound, the “BSFS Score, Change from Pretreatment Mean (SEM)” value (“BSFS Score, Change … (SEM)” below) (healthy volunteers; 300 ug once daily, Fasted, last 4 days of treatment (Sensitivity Analysis)) was 1.97 (0.174), the “BSFS Score, Change … (SEM)” value (healthy volunteers; [4]) was 1.84 (0.177) and the “CSBM, Change … (SEM)” value (healthy volunteers; [4]) was 1.00 (0.443). The “SBM, Change from Pretreatment Mean (SEM)” value (healthy volunteers; [4]) was 1.50 (0.487), the “Straining Score, Change from Pretreatment Mean (SEM)” value (healthy volunteers; [4]) was −0.17 (0.057) and the “CSBM, Change … (SEM)” value (healthy volunteers; [5]) was 1.00 (0.647). The “SBM, Change from Pretreatment Mean (SEM)” value (healthy volunteers; [5]) was 2.28 (0.704), the “BSFS Score, Change … (SEM)” value (healthy volunteers; 300 ug once daily, Fed, last 4 days of treatment (Sensitivity Analysis)) was 2.36 (0.230) and the “BSFS Score, Change … (SEM)” value (healthy volunteers; [6]) was 2.45 (0.159). The “CSBM, Change … (SEM)” value (healthy volunteers; [6]) was 4.06 (1.181), the “SBM, Change from Pretreatment Mean (SEM)” value (healthy volunteers; [6]) was 5.94 (1.503) and the “Straining Score, Change from Pretreatment Mean (SEM)” value (healthy volunteers; [6]) was −0.16 (0.064). For the same compound, the “CSBM, Difference Mean and 90 percent CI Fed-Fasted Difference” value (healthy volunteers; [7]) was 0.61 (−0.49, 1.71), the “SBM, Difference Mean and 90 percent CI Fed-Fasted Difference” value (healthy volunteers; [7]) was 1.56 (0.60, 2.51) and the “BSFS Score, Difference Mean and 90 percent CI Fed-Fasted Difference” value (healthy volunteers; 300 ug once daily, last 4 days of treatment (Sensitivity Analysis)) was 0.38 (−0.09, 0.86). For the same compound, the “BSFS Score, Difference Mean and 90% CI Fed-Fasted Difference” value (healthy volunteers; [8]) was 0.61 (0.25, 0.98)^c, the “CSBM, Difference Mean and 90% CI Fed-Fasted Difference” value (healthy volunteers; [8]) was 3.06 (0.90, 5.21) and the “SBM, Difference Mean and 90% CI Fed-Fasted Difference” value (healthy volunteers; [8]) was 4.44 (2.22, 6.67). For the same compound, the “Straining Score, Difference Mean and 90% CI Fed-Fasted Difference” value (healthy volunteers; [8]) was 0.01 (−0.12, 0.14), the “Equivalence of fasted versus fed condition on change from pretreatment BSFS Scores (primary endpoint analysis)” value (healthy volunteers; 300 ug, 7 days of treatment, 90 percent CI against equivalence margins of ±0.6125) was “did not demonstrate equivalence” and the “Equivalence of fed versus fasted condition on BSFS Score (Sensitivity Analysis)” value (healthy volunteers; 300 ug, last 4 days of treatment, 90 percent CI against equivalence margins of ±0.6125) was “did not fall within the equivalence margins”. For the same compound, the Cmax ([1]; subject 001012) was 0.735 ng/mL, the Tmax ([1]; subject 001012) was 2 h and the Tmax ([1]; subject 001019) was 0.5 h. For the same compound, the Cmax ([1]; subject 001019 (single measurable sample, at LLOQ)) was 0.212 ng/mL.
